Results reported in the supplement of paper PMC10307832.

How the values were obtained:
Assay in all cases: relative viability (nuclei count vs DMSO), 5 days (fraction); higher = more cells survive
FH535 + Lapatinib = compound: CC1=C(C=CC(=C1)[N+](=O)[O-])NS(=O)(=O)C2=C(C=CC(=C2)Cl)Cl [FH535] + CS(=O)(=O)CCNCc1ccc(-c2ccc3ncnc(Nc4ccc(OCc5cccc(F)c5)c(Cl)c4)c3c2)o1 [Lapatinib] (partner 2 µM)
Summary of the method: (§1)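 Relative viability was taken as the ratio of nuclei in treated wells to nuclei in vehicle wells. Lung cancer cell lines in 1536-well plates received compounds by pin tool one day after seeding, either one drug alone or a fixed anchor-drug dose plus five library-drug doses (not always all listed) in √10 steps. Nuclei were counted on 4× images after 5 days of treatment, and values are medians of duplicate plates.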

FH535 + Pictilisib = compound: CC1=C(C=CC(=C1)[N+](=O)[O-])NS(=O)(=O)C2=C(C=CC(=C2)Cl)Cl [FH535] + CS(=O)(=O)N1CCN(Cc2cc3nc(-c4cccc5[nH]ncc45)nc(N4CCOCC4)c3s2)CC1 [Pictilisib] (partner 1 µM)
Summary of the method: as §1

FH535 + Alpelisib = compound: CC1=C(C=CC(=C1)[N+](=O)[O-])NS(=O)(=O)C2=C(C=CC(=C2)Cl)Cl [FH535] + Cc1nc(NC(=O)N2CCC[C@H]2C(N)=O)sc1-c1ccnc(C(C)(C)C(F)(F)F)c1 [Alpelisib] (partner 2 µM)
Summary of the method: as §1

FH535 + Dasatinib = compound: CC1=C(C=CC(=C1)[N+](=O)[O-])NS(=O)(=O)C2=C(C=CC(=C2)Cl)Cl [FH535] + Cc1nc(Nc2ncc(C(=O)Nc3c(C)cccc3Cl)s2)cc(N2CCN(CCO)CC2)n1 [Dasatinib] (partner 0.075 µM)
Summary of the method: as §1

FH535 + Phenformin = compound: CC1=C(C=CC(=C1)[N+](=O)[O-])NS(=O)(=O)C2=C(C=CC(=C2)Cl)Cl [FH535] + N=C(N)NC(=N)NCCc1ccccc1 [Phenformin] (partner 250 µM)
Summary of the method: as §1

IA-LM
relative viability (FH535 + Lapatinib; first compound 0.04 µM): 0.796 | relative viability (FH535 + Lapatinib; first compound 0.1265 µM): 0.778 | relative viability (FH535 + Lapatinib; first compound 0.4 µM): 0.66 | relative viability (FH535 + Lapatinib; first compound 1.265 µM): 0.588 | relative viability (FH535 + Pictilisib; first compound 0.04 µM): 0.328 | relative viability (FH535 + Pictilisib; first compound 0.1265 µM): 0.396 | relative viability (FH535 + Pictilisib; first compound 0.4 µM): 0.389 | relative viability (FH535 + Pictilisib; first compound 1.265 µM): 0.303 | relative viability (FH535 + Alpelisib; first compound 0.04 µM): 0.827 | relative viability (FH535 + Alpelisib; first compound 0.1265 µM): 0.691 | relative viability (FH535 + Alpelisib; first compound 0.4 µM): 0.642 | relative viability (FH535 + Alpelisib; first compound 1.265 µM): 0.688

LC-2-ad
relative viability (FH535 + Lapatinib; first compound 0.04 µM): 0.711 | relative viability (FH535 + Lapatinib; first compound 0.1265 µM): 0.97 | relative viability (FH535 + Lapatinib; first compound 0.4 µM): 0.92 | relative viability (FH535 + Lapatinib; first compound 1.265 µM): 0.697 | relative viability (FH535 + Pictilisib; first compound 0.04 µM): 0.462 | relative viability (FH535 + Pictilisib; first compound 0.1265 µM): 0.466 | relative viability (FH535 + Pictilisib; first compound 0.4 µM): 0.162 | relative viability (FH535 + Pictilisib; first compound 1.265 µM): 0.33 | relative viability (FH535 + Alpelisib; first compound 0.04 µM): 0.489 | relative viability (FH535 + Alpelisib; first compound 0.1265 µM): 0.963 | relative viability (FH535 + Alpelisib; first compound 0.4 µM): 0.898 | relative viability (FH535 + Alpelisib; first compound 1.265 µM): 0.618 | relative viability (FH535 + Dasatinib; first compound 0.04 µM): 0.417 | relative viability (FH535 + Dasatinib; first compound 0.1265 µM): 0.571 | relative viability (FH535 + Dasatinib; first compound 0.4 µM): 0.437 | relative viability (FH535 + Dasatinib; first compound 1.265 µM): 0.409 | relative viability (FH535 + Phenformin; first compound 0.04 µM): 0.482 | relative viability (FH535 + Phenformin; first compound 0.1265 µM): 0.58 | relative viability (FH535 + Phenformin; first compound 0.4 µM): 0.425 | relative viability (FH535 + Phenformin; first compound 1.265 µM): 0.368

LCLC-97TM1
relative viability (FH535 + Lapatinib; first compound 0.1265 µM): 0.766 | relative viability (FH535 + Lapatinib; first compound 0.4 µM): 0.837 | relative viability (FH535 + Lapatinib; first compound 1.265 µM): 0.833 | relative viability (FH535 + Pictilisib; first compound 0.1265 µM): 0.124 | relative viability (FH535 + Pictilisib; first compound 0.4 µM): 0.176 | relative viability (FH535 + Pictilisib; first compound 1.265 µM): 0.206 | relative viability (FH535 + Alpelisib; first compound 0.1265 µM): 0.225 | relative viability (FH535 + Alpelisib; first compound 0.4 µM): 0.224 | relative viability (FH535 + Alpelisib; first compound 1.265 µM): 0.181 | relative viability (FH535 + Dasatinib; first compound 0.04 µM): 0.726 | relative viability (FH535 + Dasatinib; first compound 0.1265 µM): 0.797 | relative viability (FH535 + Dasatinib; first compound 0.4 µM): 0.811 | relative viability (FH535 + Dasatinib; first compound 1.265 µM): 0.77 | relative viability (FH535 + Phenformin; first compound 0.04 µM): 0.409 | relative viability (FH535 + Phenformin; first compound 0.1265 µM): 0.37 | relative viability (FH535 + Phenformin; first compound 0.4 µM): 0.334 | relative viability (FH535 + Phenformin; first compound 1.265 µM): 0.313

LCLC-103H
relative viability (FH535 + Pictilisib; first compound 0.04 µM): 0.598 | relative viability (FH535 + Pictilisib; first compound 0.1265 µM): 0.608 | relative viability (FH535 + Pictilisib; first compound 0.4 µM): 0.561 | relative viability (FH535 + Pictilisib; first compound 1.265 µM): 0.535 | relative viability (FH535 + Alpelisib; first compound 0.04 µM): 0.906 | relative viability (FH535 + Alpelisib; first compound 0.1265 µM): 0.935 | relative viability (FH535 + Alpelisib; first compound 0.4 µM): 1.01 | relative viability (FH535 + Alpelisib; first compound 1.265 µM): 0.927 | relative viability (FH535 + Dasatinib; first compound 0.04 µM): 0.441 | relative viability (FH535 + Dasatinib; first compound 0.1265 µM): 0.369 | relative viability (FH535 + Dasatinib; first compound 0.4 µM): 0.353 | relative viability (FH535 + Dasatinib; first compound 1.265 µM): 0.384 | relative viability (FH535 + Phenformin; first compound 0.04 µM): 0.326 | relative viability (FH535 + Phenformin; first compound 0.1265 µM): 0.286 | relative viability (FH535 + Phenformin; first compound 0.4 µM): 0.255 | relative viability (FH535 + Phenformin; first compound 1.265 µM): 0.262

LK-2
relative viability (FH535 + Lapatinib; first compound 0.04 µM): 0.982 | relative viability (FH535 + Lapatinib; first compound 0.1265 µM): 0.854 | relative viability (FH535 + Lapatinib; first compound 0.4 µM): 0.91 | relative viability (FH535 + Lapatinib; first compound 1.265 µM): 0.775 | relative viability (FH535 + Pictilisib; first compound 0.04 µM): 0.546 | relative viability (FH535 + Pictilisib; first compound 0.1265 µM): 0.573 | relative viability (FH535 + Pictilisib; first compound 0.4 µM): 0.58 | relative viability (FH535 + Pictilisib; first compound 1.265 µM): 0.489 | relative viability (FH535 + Alpelisib; first compound 0.04 µM): 0.915 | relative viability (FH535 + Alpelisib; first compound 0.1265 µM): 1.06 | relative viability (FH535 + Alpelisib; first compound 0.4 µM): 1.09 | relative viability (FH535 + Alpelisib; first compound 1.265 µM): 1.01 | relative viability (FH535 + Dasatinib; first compound 0.04 µM): 0.308 | relative viability (FH535 + Dasatinib; first compound 0.1265 µM): 0.248 | relative viability (FH535 + Dasatinib; first compound 0.4 µM): 0.294 | relative viability (FH535 + Dasatinib; first compound 1.265 µM): 0.327 | relative viability (FH535 + Phenformin; first compound 0.04 µM): 0.35 | relative viability (FH535 + Phenformin; first compound 0.1265 µM): 0.521 | relative viability (FH535 + Phenformin; first compound 0.4 µM): 0.495 | relative viability (FH535 + Phenformin; first compound 1.265 µM): 0.211
